Among the data in patent US20240398812A1 (Caraway Therapeutics, Inc., priority 2021, published 2024) are EC50 values, retold here.

Type in all cases: cell-based
For one experiment, the target named is T1, TRPML2 (Homo sapiens, UniProt Q8IZK6).
T1 construct: expressed in transfected cells
T1 sequence (Q8IZK6 1-566): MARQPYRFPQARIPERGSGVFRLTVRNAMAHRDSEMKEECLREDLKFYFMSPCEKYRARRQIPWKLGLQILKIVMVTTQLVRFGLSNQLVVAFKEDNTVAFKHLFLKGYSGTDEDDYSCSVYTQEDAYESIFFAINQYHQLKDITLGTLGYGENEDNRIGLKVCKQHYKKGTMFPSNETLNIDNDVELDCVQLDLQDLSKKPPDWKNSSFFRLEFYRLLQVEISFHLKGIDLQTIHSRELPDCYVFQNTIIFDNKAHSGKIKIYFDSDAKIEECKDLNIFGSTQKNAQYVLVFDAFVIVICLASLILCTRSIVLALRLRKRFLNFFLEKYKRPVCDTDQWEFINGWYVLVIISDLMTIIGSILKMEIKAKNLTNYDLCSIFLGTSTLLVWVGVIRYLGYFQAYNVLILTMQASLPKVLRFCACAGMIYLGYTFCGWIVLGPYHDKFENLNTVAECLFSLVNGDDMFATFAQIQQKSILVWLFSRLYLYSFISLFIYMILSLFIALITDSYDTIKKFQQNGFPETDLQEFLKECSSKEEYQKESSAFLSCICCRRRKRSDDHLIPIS
Put plainly: Fluorescent TRPML2 assay (as for TRPML1). As to the method:
HEK-293 Trex cells were stably transfected with a construct consisting of the human coding sequence for TRPML1 cloned into the tet-inducible plasmid pCDNA5 T/O. Mutations were introduced into the TRPML1 sequence to facilitate expression on the cell surface (Silvia Vergarajauregui, Rosa Puertollano Traffic. 2006 March; 7 (3): 337-353). Briefly, the cells are cultured in 150 mm round tissue culture dishes containing 20 mL of media. The day before the assay the cells are rinsed with DPBS —Ca—Mg and then treated briefly with Trypsin-EDTA. The Trypsin-EDTA is diluted with growth media, and cells are counted. 38×10^6 cells are re-plated into 150 mm round tissue culture dishes in media containing 0.5 ug/mL doxycycline to induce expression of hTRPML1.
The day of the experiment cells are lifted from the plates as above and collected by centrifugation. The cells are then suspended in dye loading buffer consisting of Ringer's solution supplemented with 0.1% Pluronic Acid and 1 micromolar Fluo4-AM dye. Cells are loaded for ˜60 minutes in the dark with occasional mixing. The cells are collected by centrifugation, the loading media aspirated, and the cells resuspended in 25 mL Ringer's solution and incubated ˜60 minutes in the dark. The cells are again collected by centrifugation, rinsed in Ringer's Solution and resuspended to 0.2×10^6 cells/mL in modified Ringer's solution containing 10 mM calcium.
Compounds are dissolved to a concentration of 10 millimolar with DMSO. Compound plates are created by dispensing compounds into 384 well black wall clear bottom plates (Greiner 781091). Positive and negative controls are included on each plate. Typically, different amounts of each compound are tested ranging from 100 nanoMoles (20 micromolar final concentration) decreasing in half-log steps to 31 picoMoles (6 nanomolar final concentration). Each concentration is typically tested in triplicate.
50 microliters of dye-loaded cells are dispensed into each well of the compound assay plate created above. The fluorescence in each well is then determined with an excitation wavelength of 480 nm and an emission wavelength of 540 nm using either a Molecular Devices SpectraMax multimode plate reader or a Hamamatsu FDSS/uCell plate imager.
The resulting fluorescence for each well is exported as an ascii file and loaded into our LIMS for analysis. The percent activity of each compound at each concentration is determined by comparison to the positive and negative control wells included in each plate.
Assays for TRPML2 and TRPML3 were performed as above for TRPML1, by substituting the appropriate TRPML2 or TRPML3 subtype for the TRPML1.
EC50 values were calculated using a non-linear regression of Prism. In the table, “A” indicates an EC50 of less than 100 nM, “B” indicates an EC50 range from 100 nM to 500 nM; “C” indicates an EC50 range from 500 nM to 2 μM; and “D” indicates an EC50 greater than 2 μM.

In a further experiment the target is human TRPML1 (Homo sapiens, UniProt Q9GZU1). Put plainly: Fluorescent TRPML1 assay (Fluo4-AM calcium fluorescence, HEK-293 Trex cells). The essentials: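 Agonist EC50 from non-linear regression of percent activity versus on-plate controls, calcium signal read at 480/540 nm. Compounds spanned 6 nM–20 μM final in triplicate. Cells: doxycycline-induced HEK-293 Trex with cell-surface human TRPML1 mutant, Fluo4-AM loaded, in Ringer's containing 10 mM calcium.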

A further experiment deals with T2, TRPML3 (Homo sapiens, UniProt Q8TDD5).
T2 construct: expressed in transfected cells
T2 sequence (Q8TDD5 1-553): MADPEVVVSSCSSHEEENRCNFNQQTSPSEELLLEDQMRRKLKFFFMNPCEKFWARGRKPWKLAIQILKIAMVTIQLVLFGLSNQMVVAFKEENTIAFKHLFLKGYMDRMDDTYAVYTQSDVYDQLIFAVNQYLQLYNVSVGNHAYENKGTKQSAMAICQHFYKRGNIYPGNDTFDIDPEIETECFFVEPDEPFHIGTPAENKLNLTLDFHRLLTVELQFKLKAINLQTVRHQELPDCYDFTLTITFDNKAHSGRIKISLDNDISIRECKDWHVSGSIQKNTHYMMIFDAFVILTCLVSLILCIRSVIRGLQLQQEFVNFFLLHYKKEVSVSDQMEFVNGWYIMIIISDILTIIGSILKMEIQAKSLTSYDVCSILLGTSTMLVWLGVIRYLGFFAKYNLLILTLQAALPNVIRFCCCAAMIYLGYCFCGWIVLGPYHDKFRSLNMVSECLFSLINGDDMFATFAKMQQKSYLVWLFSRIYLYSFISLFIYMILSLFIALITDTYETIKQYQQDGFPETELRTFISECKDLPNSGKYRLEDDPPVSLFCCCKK
Put plainly: Fluorescent TRPML3 assay (as for TRPML1). The essentials: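 EC50 came from non-linear regression of percent activity, set against on-plate positive and negative controls, using Fluo4 fluorescence (ex 480, em 540 nm). Compounds ran in triplicate from 6 nM to 20 µM final in half-log steps. Doxycycline-induced (0.5 ug/mL) HEK-293 Trex cells expressing surface-directed mutant channel were in 10 mM calcium Ringer's.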

Each structure is given as a SMILES string. Where only a bound is given, the exact number is not on record here.

Chain of human TRPML1 (Q9GZU1 whole entry L15A/L16A/L577A/L578A, form open): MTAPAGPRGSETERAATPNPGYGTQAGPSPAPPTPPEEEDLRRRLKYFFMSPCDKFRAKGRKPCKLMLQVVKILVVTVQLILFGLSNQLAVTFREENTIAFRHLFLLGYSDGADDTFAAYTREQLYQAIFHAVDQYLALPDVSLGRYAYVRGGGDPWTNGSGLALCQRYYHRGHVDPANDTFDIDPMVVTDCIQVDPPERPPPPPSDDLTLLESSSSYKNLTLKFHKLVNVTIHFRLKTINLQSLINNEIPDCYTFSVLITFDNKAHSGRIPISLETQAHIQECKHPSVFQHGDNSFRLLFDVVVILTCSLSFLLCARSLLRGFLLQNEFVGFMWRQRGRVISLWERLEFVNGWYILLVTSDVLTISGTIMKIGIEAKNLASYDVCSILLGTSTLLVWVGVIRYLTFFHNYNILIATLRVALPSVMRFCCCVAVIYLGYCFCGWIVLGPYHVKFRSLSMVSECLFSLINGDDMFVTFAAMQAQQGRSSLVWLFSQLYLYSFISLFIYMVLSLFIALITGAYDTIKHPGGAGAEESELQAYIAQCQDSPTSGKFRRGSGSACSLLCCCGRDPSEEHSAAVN

Take `C[C@@H]1CN(c2ncnc3c2c(C2CCC2)cn3-c2cc(F)cc(F)c2)[C@@H](C)CN1C(=O)CC(C)(C)C(F)(F)F` [Compound 256, 1-((2R,5S)-4-(5-cyclobutyl-7-(3,5-difluorophenyl)-7H-pyrrolo[2,3-d]pyrimidin-4-yl)-2,5-dimethylpiperazin-1-yl)-4,4,4-trifluoro-3,3-dimethylbutan-1-one]: the EC50 – broadly, the concentration giving half of the maximal effect – at TRPML2 (Table 3, compounds 201-283) was above 2 µM; at human TRPML1 (Table 3, compounds 201-283) it was 0.5 to 2 µM; at TRPML3 (Table 3, compounds 201-283), 0.5 to 2 µM.
As for `C[C@@H]1CN(c2ncnc3c2c(C2CCC2)cn3-c2cc(F)cc(F)c2)[C@@H](C)CN1C(=O)C(C)(C)C(F)(F)F` [Compound 259, 1-((2R,5S)-4-(5-cyclobutyl-7-(3,5-difluorophenyl)-7H-pyrrolo[2,3-d]pyrimidin-4-yl)-2,5-dimethylpiperazin-1-yl)-3,3,3-trifluoro-2,2-dimethylpropan-1-one], the EC50 lay in the range of 0.5 to 2 µM at TRPML2 (Table 3, compounds 201-283); 0.1 to 0.5 µM at human TRPML1 (Table 3, compounds 201-283); 0.1 to 0.5 µM at TRPML3 (Table 3, compounds 201-283).
In the case of `C[C@@H]1CN(c2ncnc3c2c(C2CC2)cn3-c2cccc(F)c2)[C@@H](C)CN1C(=O)C(C)(C)C` [Compound 214, 1-((2R,5S)-4-(5-cyclopropyl-7-(3-fluorophenyl)-7H-pyrrolo[2,3-d]pyrimidin-4-yl)-2,5-dimethylpiperazin-1-yl)-2,2-dimethylpropan-1-one], the EC50 on TRPML2 (Table 3, compounds 201-283) was above 2 µM; at human TRPML1 (Table 3, compounds 201-283), below 0.1 µM; on TRPML3 (Table 3, compounds 201-283), 0.5 to 2 µM.
The corresponding values for `COC(C)(C)C(=O)N1CCN(c2ncnc3c2c(N2CCC2)cn3-c2cc(C#N)ccn2)C[C@H]1C` [Compound 269, (R)-2-(5-(azetidin-1-yl)-4-(4-(2-methoxy-2-methylpropanoyl)-3-methylpiperazin-1-yl)-7H-pyrrolo[2,3-d]pyrimidin-7-yl)isonicotinonitrile] are below 0.1 µM, below 0.1 µM and below 0.1 µM.
On to `C[C@H]1CN(C(=O)C(C)(C)C)CCN1c1ncnc2c1c(-c1ccccc1F)cn2-c1cc(C#N)ccn1` [Compound 103, (S)-2-(5-(2-fluorophenyl)-4-(2-methyl-4-pivaloylpiperazin-1-yl)-7H-pyrrolo[2,3-d]pyrimidin-7-yl)isonicotinonitrile], for which the EC50 at TRPML2 (Table 3, compounds 101-177) is below 0.1 µM; on human TRPML1 (Table 3, compounds 101-177), below 0.1 µM; on TRPML3 (Table 3, compounds 101-177) it was below 0.1 µM.
Regarding `CC(C)CC(=O)N1C[C@H](C)N(c2ncnc3c2c(C2CC2)cn3-c2cc(C#N)ccn2)C[C@H]1C` [Compound 154], the EC50 on TRPML2 (Table 3, compounds 101-177) was above 2 µM; at human TRPML1 (Table 3, compounds 101-177) it was 0.1 to 0.5 µM; at TRPML3 (Table 3, compounds 101-177), below 0.1 µM.
Taken in the same sequence, the figures for `C[C@@H]1CN(c2ncnc3c2c(-c2ccccc2F)cn3-c2cc(C#N)ccn2)CCN1C(=O)C(C)(C)C` [Compound 109, (R)-2-(5-(2-fluorophenyl)-4-(3-methyl-4-pivaloylpiperazin-1-yl)-7H-pyrrolo[2,3-d]pyrimidin-7-yl)isonicotinonitrile] were below 0.1 µM, below 0.1 µM and below 0.1 µM.
For `COC1(C(=O)N2C[C@H](C)N(c3ncnc4c3c(-c3ccccc3F)cn4-c3cc(C#N)ccn3)C[C@H]2C)CC1` [Compound 267, 2-(5-(2-fluorophenyl)-4-((2S,5R)-4-(1-methoxycyclopropane-1-carbonyl)-2,5-dimethylpiperazin-1-yl)-7H-pyrrolo [2,3-d]pyrimidin-7-yl)isonicotinonitrile], the EC50 on TRPML2 (Table 3, compounds 201-283) is 0.1 to 0.5 µM; on human TRPML1 (Table 3, compounds 201-283), below 0.1 µM; on TRPML3 (Table 3, compounds 201-283), below 0.1 µM.
As to `C[C@@H]1CN(c2ncnc3c2c(C2CCC2)cn3-c2cccc(F)c2)[C@@H](C)CN1C(=O)C(C)(C)C(F)(F)F` [Compound 252, 1-((2R,5S)-4-(5-cyclobutyl-7-(3-fluorophenyl)-7H-pyrrolo[2,3-d]pyrimidin-4-yl)-2,5-dimethylpiperazin-1-yl)-3,3,3-trifluoro-2,2-dimethylpropan-1-one], the EC50 on TRPML2 (Table 3, compounds 201-283) lay in the range of 0.5 to 2 µM; on human TRPML1 (Table 3, compounds 201-283) it was 0.1 to 0.5 µM; on TRPML3 (Table 3, compounds 201-283) it was 0.1 to 0.5 µM.
For the compound `C[C@@H]1CN(c2ncnc3c2c(C(F)(F)F)cn3-c2cccc(Cl)c2)[C@@H](C)CN1C(=O)C(C)(C)C` [Compound 204, 1-((2R,5S)-4-(7-(3-chlorophenyl)-5-(trifluoromethyl)-7H-pyrrolo[2,3-d]pyrimidin-4-yl)-2,5-dimethylpiperazin-1-yl)-2,2-dimethylpropan-1-one], the EC50 is 0.1 to 0.5 µM at TRPML2 (Table 3, compounds 201-283); below 0.1 µM on human TRPML1 (Table 3, compounds 201-283); below 0.1 µM at TRPML3 (Table 3, compounds 201-283).
Take `C[C@@H]1CN(c2ncnc3c2c(C2CCC2)cn3-c2cccc(Cl)c2)[C@@H](C)CN1C(=O)CC(C)(C)C(F)(F)F` [Compound 258, 1-((2R,5S)-4-(7-(3-chlorophenyl)-5-cyclobutyl-7H-pyrrolo[2,3-d]pyrimidin-4-yl)-2,5-dimethylpiperazin-1-yl)-4,4,4-trifluoro-3,3-dimethylbutan-1-one]: the EC50 on TRPML2 (Table 3, compounds 201-283) fell in the range of 0.5 to 2 µM; on human TRPML1 (Table 3, compounds 201-283), 0.1 to 0.5 µM; on TRPML3 (Table 3, compounds 201-283) it was 0.1 to 0.5 µM.
Turning to `C[C@@H]1CN(c2ncnc3c2c(C2CC2)cn3-c2cc(C#N)ccn2)[C@@H](C)CN1C(=O)CC(C)(C)C` [Compound 153, 2-(5-cyclopropyl-4-((2S,5R)-4-(3,3-dimethylbutanoyl)-2,5-dimethylpiperazin-1-yl)-7H-pyrrolo[2,3-d]pyrimidin-7-yl)isonicotinonitrile], the half-maximal effective concentration (EC50) on TRPML2 (Table 3, compounds 101-177) is 0.5 to 2 µM; at human TRPML1 (Table 3, compounds 101-177) it was below 0.1 µM; on TRPML3 (Table 3, compounds 101-177), below 0.1 µM.
With `C[C@@H]1CN(c2ncnc3c2c(-c2ccccc2F)cn3-c2cc(C#N)ccn2)[C@@H](C)CN1C(=O)C(C)(C)O` [Compound 158, 2-(5-(2-fluorophenyl)-4-((2S,5R)-4-(2-hydroxy-2-methylpropanoyl)-2,5-dimethylpiperazin-1-yl)-7H-pyrrolo[2,3-d]pyrimidin-7-yl)isonicotinonitrile], the concentration for a half-maximal effect (EC50) was 0.1 to 0.5 µM on TRPML2 (Table 3, compounds 101-177); below 0.1 µM on human TRPML1 (Table 3, compounds 101-177); below 0.1 µM on TRPML3 (Table 3, compounds 101-177).
